ChEMBL document CHEMBL1158931, “Pseudosemiglabrin, a platelet aggregation inhibitor from tephrosia semiglabra” (J Nat Prod, 1990)
The source made the active and inactive calls. The calls are words filed in the database; no cut-off is given here.

How the values were obtained:
[1] = Antiplatelet aggregatory activity against U46619-induced human platelet aggregation by turbidimetric method; assay type: functional, cell-based
[2] = Antiplatelet aggregatory activity against U46619-induced human platelet aggregation at 6.5 ug/ml by turbidimetric method; assay type: functional
[3] = system: Platelet; assay: Antiplatelet aggregatory activity against adenosine diphosphate-induced human platelet aggregation at 13 ug/ml by turbidimetric method; assay type: functional, cell-based
[4] = system: Platelet; assay: Antiplatelet aggregatory activity against adenosine diphosphate-induced human platelet aggregation at 44 ug/ml by turbidimetric method; assay type: functional, cell-based
[5] = Antiplatelet aggregatory activity against U46619-induced human platelet aggregation at 45 ug/ml by turbidimetric method; assay type: functional

SMILES | IC50 [1] [µM] | Activity [2] [%] | Activity [3] | Activity [4] | Activity [5] [%]
CC(=O)O[C@H]1[C@H]2c3c(ccc4c(=O)cc(-c5ccccc5)oc34)O[C@H]2OC1(C)C | 12.5 | 85 | inactive | – | –
CC(=O)O[C@H]1[C@@H]2c3c(ccc4c(=O)cc(-c5ccccc5)oc34)O[C@@H]2OC1(C)C | – | – | – | inactive | 70
